Consider two molecules from patent US5948814A, “Genistein for the treatment of cystic fibrosis” (priority 1998, dated 1999).

Like-named read-outs stand apart in the source and are kept apart here.

The subject of series [1] is mock-transfected NIH/3T3 cells. The experiment in a line: I- efflux, mock-transfected NIH/3T3 cells. Format: cell-based. The method, then:
Cell culture: NIH/3T3-CFTR, NIH/3T3-ΔF508, and NIH/3T3 mock cells (generous gifts from Dr. Richard Mulligan of Children's Hospital and Medical Center, Harvard Medical School) were grown as described [Bradbury et al., 1992] at 37° C. and 5% CO2 in Dulbecco's modified Eagle's medium-H21 supplemented with 10% new-born calf serum, 4 mM glutamine, 25 mM glucose, 100 μg/ml penicillin, 100 μg/ml streptomycin, and 50 μg/ml gentamicin. Cells were maintained in T75 flasks, passaged at 90-95% confluency, and split one to four. For measurements of I^- efflux and in vivo phosphorylation, cells were seeded onto 35-mm dishes at […]. For patch-clamp experiments, cells were grown on coverglass chips in 35-mm culture dishes. Media were replaced 24 hours after plating and thereafter every 48 hours. In all cases, media were changed on the day before I^- efflux studies, NIH/3T3-ΔF508 cells were transferred to 27° C. three days before use, and 1 day prior to study, media were supplemented with 5 mM butyrate. For patch-clamp studies, where a constant level of functional ΔF508-CFTR was not essential, NIH/3T3-ΔF508 cells were cultured at 27° C. for 2-6 days before use. Calu-3 cells were grown and maintained as described by Hunter [1995].
I^- efflux: I^- efflux was measured as described previously [Reenstra et al., 1996]. Briefly, cells were incubated for 30 minutes with 37° C. I^- efflux buffer [(in mM) 141 NaCl, 4 KCl, 1 KH2 PO4, 0.9 MgCl2, 1.7 CaCl2. […] Extracellular ^125 I^- was removed by washing four times with efflux buffer, and the rate of loss of intracellular ^125 I^- was determined by replacing the bathing solution with 37° C. efflux buffer every 60 seconds for 12 minutes. Time-dependent rates of ^125 I^- efflux are calculated from R=ln(^125 I^-t1 /^125 I^-t2)/(t1-t2), where ^125 I^-t is the intracellular ^125 I^- at time t and t1 and t2 are successive time points. […]
To investigate effects of genistein on CFTR activity, the rates of I^- efflux were measured from stably transfected NIH/3T3 cells expressing wt- and ΔF508-CFTR (NIH/33-CFTR and NIH/3T3-ΔF508 cells, respectively). […]

A further series concerns the target wt-CFTR (Homo sapiens, UniProt P13569). As to conditions: for TC1 (short mean closed time) / TC2 (long mean closed time) / TO1 (mean open time) / TO2 (long mean open time): Table 1. As to the method: (A): continuous recordings, 4 minutes in length, of a cell-attached patch of wt-CFTR in the presence of 10 μM forskolin or 10 μM forskolin+50 μM genistein are shown. […] (B): dwell-time analysis of (A).
A continuous recording, 12 minutes in length, of cell-attached patch is shown. wt-CFTR was activated with 50 μM forskolin prior to start of trace and was present throughout recording Genistein (50 μM) was present as indicated.
Electrophysiology: CFTR channel currents were recorded at room temperature (~22° C.) with a patch-clamp amplifier (EPC-9, Heka Electronic), filtered at 100 Hz with a built-in three-pole Bessel filter, and stored on videotapes. Data were subsequently refiltered at 25 Hz with an eight-pole Bessel filter (Frequency Device, Havervill, Mass.) and captured onto a hard disk at a sampling rate of 50 Hz. […] Patch-clamp electrodes were made from Corning 7052 glass capillaries (Warner Instrument, Hammed, Conn.). The pipette resistance was usually 3-5 M.OMEGA., and the seal resistance was >20 G.OMEGA.. The pipette solution contained (in mM) 140 N-methyl-D-glucamine chloride (NMDG-C1), 2 MgCl2, 5Ca Cl2, and 10 HEPES (pH 7.4 with NMDG). The superfusion solution contained (in mM) 150 […], 2 MgCl2, 1 EGTA, 5 glucose, and 5 HEPES (pH 7.4 with NaOH). In excised inside-out patch experiments, the bath solution contained (in mM) 130 MNDG-Cl, 10 EGTA, 10 HEPES, 20 tetraethylammonium chloride, 8 Tris, and 2 MgCl2 (pH 7.4 with NMDG). Pipette potential was held at 50 mV relative to the bath. Downward deflections represent channel opening.
Statistics: Mean currents and variance were estimated with Igor (Wavemetrics, Lake Oswego, Oreg.). Parameters for mean current-variance relationships and dose-response curves were obtained from least-square fitting with Sigmaplot (Jandel, San Rafael, Calif.). Po was calculated from patches containing a single channel by dividing the […]. Dwell-time analysis was described previously [Baukrowitz et al., 1994]. Calculated values are presented as means±SE. Comparisons among data were made using the Student's t-test with P<0.05 considered significant.
To determine how genistein increases Po, the effects of genistein on single-channel kinetics were examined in cell-attached patches using dwell-time analysis. […] Both traces were recorded in the presence of 10 μM forskolin; 50 μM genistein was added prior to the start of the lower trace.

Another series concerns the target ΔF508-CFTR (Homo sapiens, UniProt P13569, DEL508-508). The experiment in a line: Mean current-variance analysis of macroscopic currents, NIH/3T3-ΔF508 cells. Format: cell-based. Details: expressed in transfected cells; host or cells: NIH/3T3 cells, stably transfected (NIH/3T3-ΔF508, gift of Dr. Richard Mulligan). As to the method:
FIGS. 4A and B are graphs showing the variance analysis of macroscopic currents for wt- and ΔF508-CFTR wherein (A) is a plot of variance as a function of mean-current amplitude for NIH/3T3-CFTR(.circle-solid.) and NIH/3T3-ΔF508 (.smallcircle.) cells stimulated with 10 μM forskolin plus 50 μM genistein. (B) is a plot of variance as a function of mean-current amplitude for NIH/3T3-CFTR (.circle-solid.) and NIH/3T3-ΔF508 (.smallcircle.) cells stimulated with 10 μM forskolin. Lines are least square regressions.
Electrophysiology: CFTR channel currents were recorded at room temperature (~22° C.) with a patch-clamp amplifier (EPC-9, Heka Electronic), filtered at 100 Hz with a built-in three-pole Bessel filter, and stored on videotapes. Data were subsequently refiltered at 25 Hz with an eight-pole Bessel filter (Frequency Device, Havervill, Mass.) and captured onto a hard disk at a sampling rate of 50 Hz. […] Patch-clamp electrodes were made from Corning 7052 glass capillaries (Warner Instrument, Hammed, Conn.). The pipette resistance was usually 3-5 M.OMEGA., and the seal resistance was >20 G.OMEGA.. […]
Statistics: Mean currents and variance were estimated with Igor (Wavemetrics, Lake Oswego, Oreg.). […] Po was calculated from patches containing a single channel by dividing the open channel current amplitude with the mean-current amplitude. […] Calculated values are presented as means±SE. […]

The mark [2] stands for this setting: 50 nM forskolin and 60 μM genistein (so in the source).
[3] abbreviates: 10 μM forskolin + 50 μM genistein.
Setting [4] is: 50 nM forskolin, single exponential fit.

Sequence of wt-CFTR (P13569 whole entry): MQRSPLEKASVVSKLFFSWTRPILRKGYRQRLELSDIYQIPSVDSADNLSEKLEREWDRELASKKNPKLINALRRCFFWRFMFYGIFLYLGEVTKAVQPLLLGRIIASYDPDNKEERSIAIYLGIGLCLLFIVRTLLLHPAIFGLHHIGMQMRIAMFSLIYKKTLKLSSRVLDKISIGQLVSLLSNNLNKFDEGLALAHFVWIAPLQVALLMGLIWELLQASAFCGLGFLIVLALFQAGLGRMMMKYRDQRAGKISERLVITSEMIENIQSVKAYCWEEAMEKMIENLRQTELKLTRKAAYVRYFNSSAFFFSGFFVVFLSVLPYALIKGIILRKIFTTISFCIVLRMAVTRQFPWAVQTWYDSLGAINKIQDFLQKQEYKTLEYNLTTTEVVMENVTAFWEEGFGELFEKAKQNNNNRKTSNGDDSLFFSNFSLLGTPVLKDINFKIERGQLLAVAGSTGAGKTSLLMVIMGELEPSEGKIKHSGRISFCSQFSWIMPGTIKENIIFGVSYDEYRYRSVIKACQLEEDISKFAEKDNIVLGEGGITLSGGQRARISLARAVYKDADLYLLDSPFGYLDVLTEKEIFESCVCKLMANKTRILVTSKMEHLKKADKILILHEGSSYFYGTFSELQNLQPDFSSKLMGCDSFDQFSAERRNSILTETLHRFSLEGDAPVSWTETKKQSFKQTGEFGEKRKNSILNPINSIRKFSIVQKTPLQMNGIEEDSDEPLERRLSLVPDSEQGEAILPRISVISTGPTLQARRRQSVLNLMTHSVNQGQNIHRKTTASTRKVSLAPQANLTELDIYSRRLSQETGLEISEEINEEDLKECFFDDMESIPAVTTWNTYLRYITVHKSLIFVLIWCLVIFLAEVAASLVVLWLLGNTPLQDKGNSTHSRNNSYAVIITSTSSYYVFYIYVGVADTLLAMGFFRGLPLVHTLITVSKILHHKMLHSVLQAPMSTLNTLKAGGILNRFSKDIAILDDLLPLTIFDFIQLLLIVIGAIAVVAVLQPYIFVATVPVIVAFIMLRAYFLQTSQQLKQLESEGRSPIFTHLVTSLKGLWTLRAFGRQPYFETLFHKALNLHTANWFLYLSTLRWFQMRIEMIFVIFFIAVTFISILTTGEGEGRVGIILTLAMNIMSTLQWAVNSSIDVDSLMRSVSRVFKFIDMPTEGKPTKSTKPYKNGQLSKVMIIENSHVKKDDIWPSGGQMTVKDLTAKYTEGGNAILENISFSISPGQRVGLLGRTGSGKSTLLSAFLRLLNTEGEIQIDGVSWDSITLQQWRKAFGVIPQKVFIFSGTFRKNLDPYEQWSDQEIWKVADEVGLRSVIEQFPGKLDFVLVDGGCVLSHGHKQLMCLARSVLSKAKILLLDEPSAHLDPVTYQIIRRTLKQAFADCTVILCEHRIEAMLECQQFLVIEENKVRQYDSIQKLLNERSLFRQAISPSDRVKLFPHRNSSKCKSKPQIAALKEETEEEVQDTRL
Sequence of ΔF508-CFTR (P13569 with tags, fused parts or gaps DEL508-508): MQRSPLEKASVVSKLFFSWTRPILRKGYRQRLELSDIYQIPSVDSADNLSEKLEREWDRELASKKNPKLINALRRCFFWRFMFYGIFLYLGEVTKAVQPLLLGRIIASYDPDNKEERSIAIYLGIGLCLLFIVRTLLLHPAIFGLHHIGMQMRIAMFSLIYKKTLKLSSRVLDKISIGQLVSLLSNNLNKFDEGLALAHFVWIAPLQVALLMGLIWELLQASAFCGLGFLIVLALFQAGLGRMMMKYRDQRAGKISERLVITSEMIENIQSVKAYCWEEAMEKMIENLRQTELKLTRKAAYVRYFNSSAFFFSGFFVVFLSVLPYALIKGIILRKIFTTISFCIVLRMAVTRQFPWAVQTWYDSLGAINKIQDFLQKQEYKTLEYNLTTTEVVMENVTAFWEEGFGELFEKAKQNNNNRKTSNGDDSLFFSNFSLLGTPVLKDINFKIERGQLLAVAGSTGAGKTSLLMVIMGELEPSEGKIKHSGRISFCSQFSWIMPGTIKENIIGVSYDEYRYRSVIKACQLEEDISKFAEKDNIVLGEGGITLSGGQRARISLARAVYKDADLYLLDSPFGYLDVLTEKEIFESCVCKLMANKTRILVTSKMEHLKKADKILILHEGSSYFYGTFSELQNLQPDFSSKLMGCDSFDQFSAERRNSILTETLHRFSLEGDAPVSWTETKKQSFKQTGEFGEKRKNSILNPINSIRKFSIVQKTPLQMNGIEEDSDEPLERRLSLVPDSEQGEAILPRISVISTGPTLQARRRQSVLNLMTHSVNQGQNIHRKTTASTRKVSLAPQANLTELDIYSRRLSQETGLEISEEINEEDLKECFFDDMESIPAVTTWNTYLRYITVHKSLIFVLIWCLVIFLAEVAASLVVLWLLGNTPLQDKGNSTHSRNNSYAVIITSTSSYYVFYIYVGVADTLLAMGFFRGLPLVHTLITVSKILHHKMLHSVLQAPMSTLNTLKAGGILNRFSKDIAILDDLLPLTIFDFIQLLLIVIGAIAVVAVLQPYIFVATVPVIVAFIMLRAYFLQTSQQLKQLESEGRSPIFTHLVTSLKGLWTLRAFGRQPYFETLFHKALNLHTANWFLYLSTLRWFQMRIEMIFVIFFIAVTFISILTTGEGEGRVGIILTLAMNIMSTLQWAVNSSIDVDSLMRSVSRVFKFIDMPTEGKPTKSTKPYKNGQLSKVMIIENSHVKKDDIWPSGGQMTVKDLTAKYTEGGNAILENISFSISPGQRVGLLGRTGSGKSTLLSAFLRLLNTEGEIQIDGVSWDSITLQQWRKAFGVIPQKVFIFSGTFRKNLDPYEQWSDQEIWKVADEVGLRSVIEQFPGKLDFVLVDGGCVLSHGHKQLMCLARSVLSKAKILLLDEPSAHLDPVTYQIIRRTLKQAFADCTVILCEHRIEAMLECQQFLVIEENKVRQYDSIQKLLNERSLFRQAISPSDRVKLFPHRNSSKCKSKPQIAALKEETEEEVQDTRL

Turning to `O=c1c(-c2ccc(O)cc2)coc2cc(O)cc(O)c12` [Genistein, 4',5,7-trihydroxyisoflavone], in series [1] (50 μM genistein), the “stimulation of I- efflux in mock cells” value is on record as “neither 1 μM forskolin, 50 μM genistein, nor 50 μM genistein plus 1 μM forskolin stimulated”. The “stimulation of I- efflux in mock cells” value in series [1] (50 μM genistein plus 1 μM forskolin) was “neither 1 μM forskolin, 50 μM genistein, nor 50 μM genistein plus 1 μM forskolin stimulated”. The “increase in Po by genistein” value on wt-CFTR (50 nM forskolin) was over 10 fold. In addition, on wt-CFTR (setting [2]), the mean closed time is ~ 2.5 seconds and the mean open time is listed as ~ 3.0 seconds. In addition, the “open probability Po” value at wt-CFTR (50 nM forskolin plus 50 μM genistein) amounted to 0.79. For the same molecule, the “open probability Po” value on wt-CFTR (10 μM forskolin plus 50 μM genistein, four channels) was 0.71±0.06. Moreover, on wt-CFTR (setting [3]), the “TC1 (short mean closed time)” value came to 0.49 ± 0.08, the “TC2 (long mean closed time)” value was 3.76 ± 1.09 and the “TO1 (mean open time)” value is recorded as 0.28 ± 0.11. The “TO2 (long mean open time)” value on wt-CFTR (10 μM forskolin + 50 μM genistein, significant, <0.05) was 2.10 ± 0.30. The “effect on long closed time” value on wt-CFTR (wt-CFTR, FIG. 7) is “dramatically decreases the long closed time”. Moreover, the “slope of variance vs mean current (proportional to 1-Po)” value on ΔF508-CFTR (10 μM forskolin and 50 μM genistein) came out at 0.16±0.03 pA.
As to `C=C[C@@]1(C)CC(=O)[C@]2(O)[C@@]3(C)[C@@H](O)CCC(C)(C)[C@@H]3[C@H](O)[C@H](OC(C)=O)[C@@]2(C)O1` [forskolin], the “stimulation of I- efflux in mock cells” value in series [1] (1 μM forskolin) is “neither 1 μM forskolin, 50 μM genistein, nor 50 μM genistein plus 1 μM forskolin stimulated”. On wt-CFTR (50 nM forskolin), the TC2 is ~ 22 seconds and the “open probability Po” value was 0.07. Further, on wt-CFTR (setting [4]), the mean closed time was ~ 22 seconds and the mean open time is recorded as ~ 0.9 seconds. Moreover, on wt-CFTR (10 μM forskolin), the TC2 is listed as ~ 3 seconds, the “TC1 (short mean closed time)” value was determined as 0.39 ± 0.11, the “TC2 (long mean closed time)” value came to 2.98 ± 0.81 and the “TO1 (mean open time)” value was 0.24 ± 0.01. Besides, on wt-CFTR (10 μM forskolin), the “TO2 (long mean open time)” value was 0.88 ± 0.09. In addition, the “open probability Po” value on wt-CFTR (10 μM forskolin, four channels) amounted to 0.27±0.03. For the same molecule, the “increase of long closed time on reducing forskolin” value at wt-CFTR (forskolin reduced from 10 μM to 50 nM) is recorded as ~ 10 fold. In addition, at ΔF508-CFTR (10 μM forskolin), the “slope of variance vs mean current (proportional to 1-Po)” value is on record as 0.72±0.06 pA.
